Laboratory results reported in ChEMBL document CHEMBL3045862, “PRE-CLINICAL AND CLINICAL PHARMACOKINETICS OF THE DIASTEREOMERS OF ARTEETHER, A POTENT ANTIMALARIAL” (Med Chem Res, 2004).

How the values were obtained:
[1] = test system: Rhesus monkey; assay: AUC (0 to infinity) in Macaca mulatta (Rhesus monkey) at 7.5 mg/kg, administered intramuscularly; format: ADME, organism-based, Plasma; set-up: time infinity, dose 7.5 mg/kg, route intramuscular; settings: in vivo, im
[2] = Cmax in Rattus norvegicus Sprague-Dawley (rat) at 30 mg/kg, administered intramuscularly; format: ADME, organism-based; set-up: dose 30 mg/kg, route intramuscular; settings: in vivo, im
[3] = test system: Rattus norvegicus; assay: Dose normalized AUC in Rattus norvegicus Sprague-Dawley (rat) at 17.5 mg/kg, po; format: ADME, organism-based; set-up: dose 17.5 mg/kg, route oral; settings: in vivo
[4] = test system: Rattus norvegicus; assay: Dose normalized AUC in Rattus norvegicus Sprague-Dawley (rat) at 30 mg/kg, administered intramuscularly; format: ADME, organism-based; set-up: dose 30 mg/kg, route intramuscular; settings: in vivo, im
[5] = test system: Rhesus monkey; assay: AUC (0 to infinity) in Macaca mulatta (Rhesus monkey) at 50 mg/kg, po; format: ADME, organism-based, Plasma; set-up: time infinity, dose 50 mg/kg, route oral; settings: in vivo
[6] = Tmax in Rattus norvegicus Sprague-Dawley (rat) at 30 mg/kg, po; format: ADME, organism-based; set-up: dose 30 mg/kg, route oral; settings: in vivo
[7] = Cmax in Rattus norvegicus Sprague-Dawley (rat) at 17.5 mg/kg, po; format: ADME, organism-based; set-up: dose 17.5 mg/kg, route oral; settings: in vivo
[8] = test system: Rhesus monkey; assay: Dose normalized AUC in Macaca mulatta (Rhesus monkey) at 4 mg/kg, iv; format: ADME, organism-based; set-up: dose 4 mg/kg, route intravenous; settings: in vivo
[9] = test system: Rattus norvegicus; assay: Volume of distribution in Rattus norvegicus Sprague-Dawley (rat) at 30 mg/kg, po; format: ADME, organism-based; set-up: dose 30 mg/kg, route oral; settings: in vivo
[10] = test system: Rhesus monkey; assay: Volume of distribution in Macaca mulatta (Rhesus monkey) at 50 mg/kg, po; format: ADME, organism-based; set-up: dose 50 mg/kg, route oral; settings: in vivo
[11] = test system: Rattus norvegicus; assay: AUC (0 to infinity) in Rattus norvegicus Sprague-Dawley (rat) at 17.5 mg/kg, po; format: ADME, organism-based, Plasma; set-up: time infinity, dose 17.5 mg/kg, route oral; settings: in vivo
[12] = test system: Rattus norvegicus; assay: Clearance in Rattus norvegicus Sprague-Dawley (rat) at 30 mg/kg, po; format: ADME, organism-based; set-up: dose 30 mg/kg, route oral; settings: in vivo
[13] = Mean residence time in Rattus norvegicus Sprague-Dawley (rat) at 17.5 mg/kg, administered intramuscularly; format: ADME, organism-based; set-up: dose 17.5 mg/kg, route intramuscular; settings: in vivo, im
[14] = AUC (0 to infinity) in Homo sapiens (human) at 150 mg; format: ADME, organism-based; set-up: dose 150 mg, time infinity; settings: plasma
[15] = Elimination half life in Rattus norvegicus Sprague-Dawley (rat) at 2 mg/kg, iv; format: ADME, organism-based; set-up: dose 2 mg/kg, route intravenous; settings: in vivo, read-out: beta t1/2 (converted)
[16] = test system: Rattus norvegicus; assay: Volume of distribution in Rattus norvegicus Sprague-Dawley (rat) at 17.5 mg/kg, administered intramuscularly; format: ADME, organism-based; set-up: dose 17.5 mg/kg, route intramuscular; settings: in vivo, im
[17] = test system: Rhesus monkey; assay: Volume of distribution in Macaca mulatta (Rhesus monkey) at 7.5 mg/kg, administered intramuscularly; format: ADME, organism-based; set-up: dose 7.5 mg/kg, route intramuscular; settings: in vivo, im
[18] = Elimination half life in Rattus norvegicus Sprague-Dawley (rat) at 9 mg/kg, po; format: ADME, organism-based; set-up: dose 9 mg/kg, route oral; settings: in vivo, read-out: beta t1/2 (converted)
[19] = test system: Rattus norvegicus; assay: Clearance in Rattus norvegicus Sprague-Dawley (rat) at 30 mg/kg, administered intramuscularly; format: ADME, organism-based; set-up: dose 30 mg/kg, route intramuscular; settings: in vivo, im
[20] = Cmax in Rattus norvegicus Sprague-Dawley (rat) at 30 mg/kg, po; format: ADME, organism-based; set-up: dose 30 mg/kg, route oral; settings: in vivo
[21] = Elimination half life in Macaca mulatta (Rhesus monkey) at 7.5 mg/kg, administered intramuscularly; format: ADME, organism-based; set-up: dose 7.5 mg/kg, route intramuscular; settings: in vivo, im, read-out: beta t1/2 (converted)
[22] = test system: Rhesus monkey; assay: Clearance in Macaca mulatta (Rhesus monkey) at 7.5 mg/kg, administered intramuscularly; format: ADME, organism-based; set-up: dose 7.5 mg/kg, route intramuscular; settings: in vivo, im
[23] = test system: Rattus norvegicus; assay: AUC (0 to infinity) in Rattus norvegicus Sprague-Dawley (rat) at 30 mg/kg, administered intramuscularly; format: ADME, organism-based, Plasma; set-up: time infinity, dose 30 mg/kg, route intramuscular; settings: in vivo, im
[24] = Tmax in Macaca mulatta (Rhesus monkey) at 50 mg/kg, po; format: ADME, organism-based; set-up: dose 50 mg/kg, route oral; settings: in vivo
[25] = test system: Rattus norvegicus; assay: Clearance in Rattus norvegicus Sprague-Dawley (rat) at 9 mg/kg, po; format: ADME, organism-based; set-up: dose 9 mg/kg, route oral; settings: in vivo
[26] = test system: Rattus norvegicus; assay: Dose normalized AUC in Rattus norvegicus Sprague-Dawley (rat) at 17.5 mg/kg, administered intramuscularly; format: ADME, organism-based; set-up: dose 17.5 mg/kg, route intramuscular; settings: in vivo, im
[27] = Mean residence time in Homo sapiens (human) at 150 mg; format: ADME, organism-based; settings: in vivo
[28] = Tmax in Rattus norvegicus Sprague-Dawley (rat) at 17.5 mg/kg, po; format: ADME, organism-based; set-up: dose 17.5 mg/kg, route oral; settings: in vivo
[29] = test system: Rattus norvegicus; assay: Clearance in Rattus norvegicus Sprague-Dawley (rat) at 17.5 mg/kg, administered intramuscularly; format: ADME, organism-based; set-up: dose 17.5 mg/kg, route intramuscular; settings: in vivo, im
[30] = Elimination half life in Homo sapiens (human) at 150 mg; format: ADME, organism-based; settings: in vivo, read-out: beta t1/2 (converted)
[31] = Elimination half life in Macaca mulatta (Rhesus monkey) at 4 mg/kg, iv; format: ADME, organism-based; set-up: dose 4 mg/kg, route intravenous; settings: in vivo, read-out: beta t1/2 (converted)
[32] = Mean residence time in Macaca mulatta (Rhesus monkey) at 4 mg/kg, iv; format: ADME, organism-based; set-up: dose 4 mg/kg, route intravenous; settings: in vivo
[33] = Cmax in Homo sapiens (human) at 150 mg; format: ADME, organism-based; set-up: dose 150 mg; settings: in vivo
[34] = test system: Rattus norvegicus; assay: Clearance in Rattus norvegicus Sprague-Dawley (rat) at 9 mg/kg, administered intramuscularly; format: ADME, organism-based; set-up: dose 9 mg/kg, route intramuscular; settings: in vivo, im
[35] = test system: Rattus norvegicus; assay: Clearance in Rattus norvegicus Sprague-Dawley (rat) at 2 mg/kg, iv; format: ADME, organism-based; set-up: dose 2 mg/kg, route intravenous; settings: in vivo
[36] = test system: Rattus norvegicus; assay: AUC (0 to infinity) in Rattus norvegicus Sprague-Dawley (rat) at 2 mg/kg, iv; format: ADME, organism-based, Plasma; set-up: time infinity, dose 2 mg/kg, route intravenous; settings: in vivo
[37] = Tmax in Rattus norvegicus Sprague-Dawley (rat) at 17.5 mg/kg, administered intramuscularly; format: ADME, organism-based; set-up: dose 17.5 mg/kg, route intramuscular; settings: in vivo, im
[38] = test system: Rattus norvegicus; assay: Volume of distribution in Rattus norvegicus Sprague-Dawley (rat) at 9 mg/kg, administered intramuscularly; format: ADME, organism-based; set-up: dose 9 mg/kg, route intramuscular; settings: in vivo, im
[39] = Elimination half life in Rattus norvegicus Sprague-Dawley (rat) at 30 mg/kg, po; format: ADME, organism-based; set-up: dose 30 mg/kg, route oral; settings: in vivo, read-out: beta t1/2 (converted)
[40] = Mean residence time in Rattus norvegicus Sprague-Dawley (rat) at 9 mg/kg, po; format: ADME, organism-based; set-up: dose 9 mg/kg, route oral; settings: in vivo
[41] = test system: Rattus norvegicus; assay: Volume of distribution in Rattus norvegicus Sprague-Dawley (rat) at 9 mg/kg, po; format: ADME, organism-based; set-up: dose 9 mg/kg, route oral; settings: in vivo
[42] = test system: Rattus norvegicus; assay: Clearance in Rattus norvegicus Sprague-Dawley (rat) at 17.5 mg/kg, po; format: ADME, organism-based; set-up: dose 17.5 mg/kg, route oral; settings: in vivo

## CCO[C@@H]1O[C@@H]2O[C@]3(C)CC[C@H]4[C@H](C)CC[C@@H]([C@H]1C)[C@@]24OO3 [ALPHA-ARTEETHER]
[1]
  AUC: 0.6418 µg·h/mL
[2]
  Cmax: 0.0933 µg/mL
[3]
  AUC/dose: 9.7 ng·h/mL
[4]
  AUC/dose: 66.8 ng·h/mL
[5]
  AUC: 0.0066 µg·h/mL
[6]
  Tmax: 5 min
[7]
  Cmax: 0.0376 µg/mL
[8]
  AUC/dose: 628.7 ng·h/mL
[9]
  Vd: 176.5 L/kg
[10]
  Vd: 7148.8 L/kg
[11]
  AUC: 0.0509 µg·h/mL
[12]
  CL: 79.9 L/h/kg
[13]
  MRT: 23.5 h
[14]
  AUC(0-inf): 1.3 µg·h/mL
[15]
  half-life: 0.55 h
[16]
  Vd: 129.3 L/kg
[17]
  Vd: 36.8 L/kg
[18]
  half-life: 2.4 h
[19]
  CL: 14.8 L/h/kg
[20]
  Cmax: 0.103 µg/mL
[21]
  half-life: 6.7 h
[22]
  CL: 3.7 L/h/kg
[23]
  AUC: 0.6011 µg·h/mL
[24]
  Tmax: 0.222 h
[25]
  CL: 36 L/h/kg
[26]
  AUC/dose: 237.5 ng·h/mL
[27]
  MRT: 19.6 h
[28]
  Tmax: 5 min
[29]
  CL: 4.1 L/h/kg
[30]
  half-life: 13.2 h
[31]
  half-life: 1.8 h
[32]
  MRT: 2 h
[33]
  Cmax: 0.0607 µg/mL
[34]
  CL: 2.4 L/h/kg
[35]
  CL: 4.5 L/h/kg
[36]
  AUC: 0.1317 µg·h/mL
[37]
  Tmax: 0.5 h
[38]
  Vd: 76.8 L/kg
[39]
  half-life: 1.5 h
[40]
  MRT: 4.3 h
[41]
  Vd: 122.2 L/kg
[42]
  CL: 102.5 L/h/kg
